The text below walks through data of patent US8658591B2, “Multi-LEU peptides and analogues thereof as selective PACE4 inhibitors and effective antiproliferative agents” (priority 2008, dated 2014).

The target in one assay is T1, PC1/3 (Homo sapiens, UniProt P29120).
T1 sequence (P29120 111-753): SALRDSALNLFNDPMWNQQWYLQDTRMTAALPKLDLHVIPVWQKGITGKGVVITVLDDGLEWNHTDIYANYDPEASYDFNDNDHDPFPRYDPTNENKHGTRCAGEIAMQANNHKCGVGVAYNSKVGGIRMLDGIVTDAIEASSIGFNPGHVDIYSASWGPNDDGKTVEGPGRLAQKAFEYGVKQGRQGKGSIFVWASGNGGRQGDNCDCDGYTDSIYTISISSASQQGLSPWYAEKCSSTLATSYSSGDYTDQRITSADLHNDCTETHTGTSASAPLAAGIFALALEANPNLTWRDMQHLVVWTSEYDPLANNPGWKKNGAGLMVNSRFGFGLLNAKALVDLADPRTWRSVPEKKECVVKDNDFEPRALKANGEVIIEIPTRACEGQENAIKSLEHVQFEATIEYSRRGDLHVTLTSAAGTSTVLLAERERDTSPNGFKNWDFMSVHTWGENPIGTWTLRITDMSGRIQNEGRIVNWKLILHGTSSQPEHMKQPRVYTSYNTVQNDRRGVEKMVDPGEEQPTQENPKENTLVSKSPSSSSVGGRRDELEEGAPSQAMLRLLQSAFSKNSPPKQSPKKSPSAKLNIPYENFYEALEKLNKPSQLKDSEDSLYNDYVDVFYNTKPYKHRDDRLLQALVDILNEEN
Kind of assay: Enzyme inhibition assay, fluorogenic substrate, PC1/3. The class given is biochemical. On the procedure: (§1) Enzyme inhibition assays for furin (FIG. 5D) were performed in 100 mM Hepes pH 7.5, 1 mM CaCl2, 1 mM β-mercaptoethanol, 0.5 μg/μL BSA. Assays for PC2 (FIG. 5E) were performed in 20 mM Bis-Tris pH 5,7, 1 mM CaCl2, 0.1% Brij-30. Assays for PC1/3, PC4, PACE4, PC5/6 and PC7 (FIGS. 5F, G, A, B and C respectively) were performed in 20 mM Bis-Tis pH 6.5, 1 mM CaCl2. All assays were performed with the substrate pyroGlu-Arg-[…]-Lys-Arg-methyl-coumaryl-7-amide (SEQ ID NO: 33) (PyrRTKR-MCA (SEQ ID NO: 34)) (Bachem, CA) at 100 μM for furin, PC1/3, PC4, PACE4 and PC5/6, 200 μM for PC2 and 250 μM for PC7. Assays were carried out at 37° C. for 30-60 min and real-time fluorescence was measured with an excitation wavelength of 370 nm and an emission wavelength of 460 nm using a Gemini XS™ 96-well spectrofluorometer and SoftMaxPro4™ software (Molecular Devices, CA). Inhibitory peptides were added to the enzymes at decreasing concentrations from 100 μM to 50 nM and incubated 5 minutes prior to the addition of substrate.

A further assay addresses T2, PC7 (Homo sapiens, UniProt Q16549).
T2 sequence (Q16549 142-785): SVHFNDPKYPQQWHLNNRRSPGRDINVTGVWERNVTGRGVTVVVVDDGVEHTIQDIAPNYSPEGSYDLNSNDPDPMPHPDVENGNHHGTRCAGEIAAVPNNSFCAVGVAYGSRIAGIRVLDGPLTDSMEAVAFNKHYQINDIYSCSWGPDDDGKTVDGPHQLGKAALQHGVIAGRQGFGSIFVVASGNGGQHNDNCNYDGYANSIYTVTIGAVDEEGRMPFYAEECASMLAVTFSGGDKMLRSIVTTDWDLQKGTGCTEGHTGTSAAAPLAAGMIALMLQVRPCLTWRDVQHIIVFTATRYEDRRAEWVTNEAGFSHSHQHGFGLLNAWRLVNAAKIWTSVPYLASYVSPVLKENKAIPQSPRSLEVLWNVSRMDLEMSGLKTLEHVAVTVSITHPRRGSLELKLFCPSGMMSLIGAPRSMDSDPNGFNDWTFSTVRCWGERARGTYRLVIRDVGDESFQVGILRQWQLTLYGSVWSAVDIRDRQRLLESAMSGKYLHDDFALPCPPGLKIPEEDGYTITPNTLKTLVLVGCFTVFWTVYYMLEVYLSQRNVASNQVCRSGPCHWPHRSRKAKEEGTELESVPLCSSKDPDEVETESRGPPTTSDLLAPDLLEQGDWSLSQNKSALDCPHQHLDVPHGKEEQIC
Kind of assay: Enzyme inhibition assay, fluorogenic substrate, PC7. The class given is biochemical. On the procedure: as §1

On to RVKR [RVKR—NH2, RVKR-NH2], for which the “inhibition potency on PC1/3, in words” value against PC1/3 is “poor micromolar inhibitor”. In addition, on PC7, the “inhibition potency on PC7, in words” value is given as “poor micromolar inhibitor”.
